Active and inactive are the calls of the source. The calls are words filed in the database; no cut-off is given here. Where a SMILES comes first, the peptide text is derived from it. The star is where a group is joined. Boc = CC(C)(C)OC(=O)*
Each molecule was assayed against T1, Cholinesterase (Homo sapiens, UniProt P06276).
T1 sequence (P06276 whole entry): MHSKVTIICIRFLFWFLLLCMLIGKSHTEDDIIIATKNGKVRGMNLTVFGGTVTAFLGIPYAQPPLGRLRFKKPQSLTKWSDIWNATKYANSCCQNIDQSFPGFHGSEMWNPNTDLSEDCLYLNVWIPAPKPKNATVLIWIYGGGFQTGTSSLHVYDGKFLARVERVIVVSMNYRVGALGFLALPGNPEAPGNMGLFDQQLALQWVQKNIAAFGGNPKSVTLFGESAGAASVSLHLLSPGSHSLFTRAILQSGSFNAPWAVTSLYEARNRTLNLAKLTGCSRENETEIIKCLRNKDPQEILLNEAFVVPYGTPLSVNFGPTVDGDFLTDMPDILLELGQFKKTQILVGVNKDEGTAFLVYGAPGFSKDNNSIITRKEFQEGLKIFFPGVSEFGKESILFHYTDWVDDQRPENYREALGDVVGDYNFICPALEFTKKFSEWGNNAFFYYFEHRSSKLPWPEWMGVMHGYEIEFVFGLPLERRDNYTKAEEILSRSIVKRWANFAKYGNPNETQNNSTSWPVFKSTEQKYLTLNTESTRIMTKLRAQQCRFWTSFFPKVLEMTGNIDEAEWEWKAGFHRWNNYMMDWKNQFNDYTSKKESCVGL
Description: Inhibition of BChE (unknown origin) incubated for 10 mins by Ellman's method

SMILES	IC50 [nM]
c1ccc2[nH]c(SCCSc3nc4ccccc4[nH]3)nc2c1	3030
c1ccc2[nH]c(CN(CCN(Cc3nc4ccccc4[nH]3)Cc3nc4ccccc4[nH]3)Cc3nc4ccccc4[nH]3)nc2c1	1360
c1ccc2c(CN3CCN(Cc4c[nH]c5ccccc45)CC3)c[nH]c2c1	987
Cc1cc(CSCCc2nc3ccccc3[nH]2)c(O)c(CSCCc2nc3ccccc3[nH]2)c1	32
CCN(CC)C(C)CN1c2ccccc2Sc2ccccc21 (stereo not drawn) [ETHOPROPAZINE]	210

Each molecule was assayed against T1, Cholinesterase (assay: Inhibition of BChE (unknown origin) at 5 uM incubated for 10 mins by Ellman's method relative to control).

SMILES	inhibition [%]
Oc1ccc2[nH]c3c(c2c1)C[PH](Cc1cccc2ccccc12)(c1ccccc1)CC3	99.7
COC(=O)C(Cc1c[nH]c2ccccc12)NC(=O)C(Cc1c[nH]c2ccccc12)NC(=O)C(Cc1c[nH]c2ccccc12)NC(=O)C(Cc1c[nH]c2ccccc12)NC(=O)OC(C)(C)C (stereo not drawn) (Boc-WWWW-OMe; configuration not given here)	51.2
c1ccc2[nH]c(SCCSc3nc4ccccc4[nH]3)nc2c1	81.2
N#CC(C(=O)CCc1nc2ccccc2[nH]1)c1c(Cl)cccc1Cl (stereo not drawn)	32.7
c1ccc2[nH]c(CN(CCN(Cc3nc4ccccc4[nH]3)Cc3nc4ccccc4[nH]3)Cc3nc4ccccc4[nH]3)nc2c1	92
COC(=O)C(Cc1c[nH]c2ccccc12)NC(=O)C(Cc1c[nH]c2ccccc12)NC(=O)OCc1ccccc1 (stereo not drawn)	92.9
O=c1[nH]nc(Cc2ccc(Cl)cc2)n1N=Cc1c[nH]c2ccccc12	20.7
Cc1ccc(S(=O)(=O)C(C#N)(Cc2c[nH]c3ccccc23)Cc2c[nH]c3ccccc23)cc1	48.5
CCn1c(CCCc2nc3c(=O)n(C)c(=O)n(C)c3[nH]2)nc2c1c(=O)n(C)c(=O)n2C	15.4
Cc1cc2nc(C(O)C(O)C(O)C(O)c3nc4cc(C)c(C)cc4[nH]3)[nH]c2cc1C (stereo not drawn)	4
Cn1c(=O)c2nc(COCc3nc4c(=O)n(C)c(=O)n(C)c4[nH]3)[nH]c2n(C)c1=O	26.5
Cc1ccc2nc(CN(CCN(Cc3nc4ccc(C)cc4[nH]3)Cc3nc4ccc(C)cc4[nH]3)Cc3nc4ccc(C)cc4[nH]3)[nH]c2c1	41.7
Cc1[nH]c2ccccc2c1C(=O)CC1(O)C(=O)Nc2c(Cl)cc(Cl)cc21 (stereo not drawn)	47.5
Cn1c(=O)c2[nH]c(CCCc3nc4c([nH]3)c(=O)n(C)c(=O)n4C)nc2n(C)c1=O	19.1
Cc1nc(C(N)=S)sc1C(=O)CC(=O)C(=O)Nc1nc2ccccc2[nH]1	43.5
COc1ccc(OC)c2[nH]c(CCc3nc4c(OC)ccc(OC)c4[nH]3)nc12	16.7
O=C(Nc1ccccc1)c1cc(S(=O)(=O)Nc2nc3cccnc3[nH]2)c(SSc2cc(Cl)c(C(=O)Nc3ccccc3)cc2S(=O)(=O)Nc2nc3cccnc3[nH]2)cc1Cl	9.9
Cc1cc(S(=O)(=O)N=c2[nH]c3ccccc3[nH]2)c(SCc2ccccc2)cc1Cl	65.7
c1ccc2c(CN3CCN(Cc4c[nH]c5ccccc45)CC3)c[nH]c2c1	76.5
COC(=O)C(Cc1c[nH]c2ccccc12)NC(=O)C(Cc1c[nH]c2ccccc12)NC(=O)C(Cc1c[nH]c2ccccc12)NC(=O)C(Cc1c[nH]c2ccccc12)NC(=O)C(Cc1c[nH]c2ccccc12)NC(=O)C(Cc1c[nH]c2ccccc12)NC(=O)OC(C)(C)C (stereo not drawn) (Boc-WWWWWW-OMe; configuration not given here)	46

SMILES	inhibition [%]
Cc1ccc2[nH]/c(=N/S(=O)(=O)c3cc(C)c(Cl)cc3S)[nH]c2c1	50.9
O=S(=O)(Cc1nc2ccccc2[nH]1)Cc1nc2ccccc2[nH]1	62
Cn1c(=O)c2[nH]c(CCc3nc4c([nH]3)c(=O)n(C)c(=O)n4C)nc2n(C)c1=O	17.9
COC(=O)[C@H](Cc1c[nH]c2ccccc12)NC(=O)[C@H](Cc1c[nH]c2ccccc12)NC(=O)[C@H](Cc1c[nH]c2ccccc12)NC(=O)OC(C)(C)C (Boc-Trp-Trp-Trp-OMe)	79.9
Cn1c(=O)c2[nH]c(CCCc3nc4c(c(=O)n(C)c(=O)n4C)n3C)nc2n(C)c1=O	25.3
Cc1cc(CSCCc2nc3ccccc3[nH]2)c(O)c(CSCCc2nc3ccccc3[nH]2)c1	101
CN(C)c1ccc(C=CC(=O)c2nc3ccccc3[nH]2)cc1	43.2
Cc1cc(S(=O)(=O)N=c2[nH]c3cccc(C)c3[nH]2)c(SCc2ccccc2)cc1Cl	55.6
Fc1ccc2[nH]c3c(c2c1)C[PH](Cc1cccc2ccccc12)(c1ccccc1)CC3	97.5
CCC(C)C(NC(=O)C(CC(C)C)NC(=O)C(N)Cc1c[nH]c2ccccc12)C(=O)NC(Cc1c[nH]c2ccccc12)C(=O)O (stereo not drawn) (H-WLIW-OH; configuration not given here)	38.9
Cn1c(=O)c2nc(CCCCc3nc4ccccc4[nH]3)[nH]c2n(C)c1=O	25.6
Cc1ccc(S(=O)(=O)OCC2CCc3[nH]c4ccccc4c3C2)cc1 (stereo not drawn)	73.1
Cc1c(C(=O)CSc2nc3ccccc3[nH]2)c(=O)n(-c2ccccc2)n1C	62.7
Cn1c(=O)c2[nH]c(C(O)C(O)c3nc4c([nH]3)c(=O)n(C)c(=O)n4C)nc2n(C)c1=O (stereo not drawn)	25
Cn1c(=O)c2nc(CS(=O)(=O)Cc3nc4c(=O)n(C)c(=O)n(C)c4[nH]3)[nH]c2n(C)c1=O	8
O=c1[nH]c2cc(Cl)ccc2n1C1CCN(CCCC(c2ccc(F)cc2)c2ccc(F)cc2)CC1	43.2
Cc1cc(S(=O)(=O)Nc2nc3ccccc3[nH]2)c(S)cc1Cl	48.5
Cc1cc(S(=O)(=O)NC2=Nc3cccc4cccc(c34)N2)c(S)cc1Cl	50.3
Cc1[nH]c2ccccc2c1C1=CC(c2c(C)[nH]c3ccccc23)CCC1 (stereo not drawn)	75

Each molecule was assayed against Acetylcholinesterase (Homo sapiens) (UniProt P22303) (assay: Inhibition of AChE (unknown origin) at 5000 nM by Ellman's method).
Sequence of Acetylcholinesterase (Homo sapiens) (P22303 whole entry): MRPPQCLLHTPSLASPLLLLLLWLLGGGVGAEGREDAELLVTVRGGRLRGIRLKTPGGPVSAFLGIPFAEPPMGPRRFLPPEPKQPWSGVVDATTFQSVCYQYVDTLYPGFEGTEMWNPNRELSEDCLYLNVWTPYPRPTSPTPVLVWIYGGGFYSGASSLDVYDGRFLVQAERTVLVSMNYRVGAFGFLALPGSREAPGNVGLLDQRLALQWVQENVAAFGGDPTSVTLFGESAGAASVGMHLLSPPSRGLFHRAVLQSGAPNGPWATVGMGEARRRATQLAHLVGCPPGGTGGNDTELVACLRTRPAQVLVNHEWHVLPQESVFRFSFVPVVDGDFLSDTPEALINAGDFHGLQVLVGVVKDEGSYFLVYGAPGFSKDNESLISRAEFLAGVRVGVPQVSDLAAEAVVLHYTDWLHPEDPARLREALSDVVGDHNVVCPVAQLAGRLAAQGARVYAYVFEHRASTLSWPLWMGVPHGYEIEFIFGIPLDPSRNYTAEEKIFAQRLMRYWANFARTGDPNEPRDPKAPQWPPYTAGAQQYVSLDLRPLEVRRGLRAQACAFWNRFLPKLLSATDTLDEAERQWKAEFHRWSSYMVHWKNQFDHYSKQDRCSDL

SMILES	inhibition
c1ccc2[nH]c(SCCSc3nc4ccccc4[nH]3)nc2c1	inactive
c1ccc2[nH]c(CN(CCN(Cc3nc4ccccc4[nH]3)Cc3nc4ccccc4[nH]3)Cc3nc4ccccc4[nH]3)nc2c1	inactive
c1ccc2c(CN3CCN(Cc4c[nH]c5ccccc45)CC3)c[nH]c2c1	inactive
Cc1cc(CSCCc2nc3ccccc3[nH]2)c(O)c(CSCCc2nc3ccccc3[nH]2)c1	inactive
